Measurements reported in patent US4439603A, “Anthracycline derivatives of β-rhodomycinone glycosides” (Sanraku-Ocean Co., Ltd., priority 1981, dated 1984).
Values after ≈ are worked out from the molar mass of the structure shown.

What was measured:
L1210 leukemia cells = assay: Growth inhibition of cultured mouse leukemia L1210 cells (48 hours, viable cell count); assay type: cell-based; details: for IC50: Mus musculus, L1210, 48 h, read-out: 50% Inhibitory concentration, Growth inhibition after 48 hours; for antitumor effect on L1210 leukemia cells: result in words
Protocol: The L1210 cells were cultivated at 37° C. overnight and transferred to RPMI (Roswell Park Memorial Institute) 1640 medium containing 20% calf serum at their exponential growth phase so as to give a cell concentration of 4×10^4 cells/ml. The compounds of the present invention were added to the medium at a concentration of 0.01-0.25 μg/ml. Incubation was performed in a CO2 -incubator at 37° C. for 2 days and then the number of viable cells was counted.
(§1) Independently of the above-mentioned experiment, the compounds of the present invention were added to an about 5×10^5 cells/ml L1210 cell suspension in RPMI 1640 medium containing 10% calf serum at a concentration of 0.02-2.5 μg/ml. After 15 minutes, ^14 -C-uridine (0.05 μCi/ml) or ^14 C-thymidine (0.05 μCi/ml) was added to the suspension and pulse-labeling was carried out at 37° C. for 60 minutes. The reaction was stopped by addition of a cold 10% trichloroacetic acid solution and an acid-insoluble fraction was precipitated. The precipitate was washed with a cold 5% trichloroacetic acid and the radioactivity was measured.

[1] = test system: L1210 cells, DNA synthesis; assay: Inhibition of DNA synthesis (14C-thymidine incorporation) in L1210 cells; assay type: cell-based, mouse; details: RPMI 1640 with 10% calf serum, pulse-labeling 60 minutes at 37° C.; for IC50: Mus musculus, L1210, 1 h, read-out: 50% Inhibitory concentration, 14C-Thymidine (Inhibition of DNA synthesis)
Protocol: as §1

[2] = test system: L1210 cells, RNA synthesis; assay: Inhibition of RNA synthesis (14C-uridine incorporation) in L1210 cells; assay type: cell-based, mouse; details: RPMI 1640 with 10% calf serum, pulse-labeling 60 minutes at 37° C.; for IC50: Mus musculus, L1210, 1 h, read-out: 50% Inhibitory concentration, 14C-Uridine (Inhibition of RNA synthesis)
Protocol: as §1

[3] = Acute toxicity in mice upon a single intraabdominal injection; assay type: in vivo; details: mouse, in vivo, ip
Solubility = assay type: physicochemical
Protocol: Solubilities of the compounds of the present invention, β-rhodomycinone-RDA, -RDRs, and -RD are similar. […] The color of the solutions, when they are dissolved, is red or reddish yellow, which is changed to violet in alkaline solution.

mice = assay: Acute toxicity in mice upon a single intraabdominal injection; assay type: in vivo
[4] = L1210 cells, RPMI 1640 with 20% calf serum, 37° C., 48 hours
[5] = in acidic water, methanol, ethanol, n-butanol, acetone, ethyl acetate, chloroform, benzene, toluene, dimethylsulfoxide and methyl cellosolve

CCC1(O)CC(OC2CC(N(C)C)C(OC3CC(O)C(OC4CCC(O)C(C)O4)C(C)O3)C(C)O2)c2c(O)c3c(c(O)c2C1O)C(=O)c1cccc(O)c1C3=O (stereo not drawn) [β-Rhodomycinone-RDA]
IC50 (L1210 leukemia cells; [4]): 0.028 µg/mL (≈ 0.0355 µM)
antitumor effect on L1210 leukemia cells (L1210 leukemia cells): have an antitumor effect on L1210 leukemia cells
IC50 [1]: 0.52 µg/mL (≈ 0.66 µM)
IC50 [2]: 0.095 µg/mL (≈ 0.121 µM)
LD50 [3]: 40.6 mg/kg
Solubility (Solubility; [5]): soluble
Solubility (Solubility; in water, ether and n-hexane): slightly soluble

CCC1(O)CC(OC2CC(N(C)C)C(OC3CC(O)C(OC4CCC(O)C(C)O4)C(C)O3)C(C)O2)c2c(O)c3c(c(O)c2C1O)C(=O)c1cccc(O)c1C3=O (stereo not drawn) [β-Rhodomycinone-RDRs]
50% Inhibitory concentration, Growth inhibition after 48 hours (L1210 leukemia cells; [4]): 0.016 µg/mL
antitumor effect on L1210 leukemia cells (L1210 leukemia cells): have an antitumor effect on L1210 leukemia cells
50% Inhibitory concentration, 14C-Thymidine (Inhibition of DNA synthesis) [1]: 0.54 µg/mL
50% Inhibitory concentration, 14C-Uridine (Inhibition of RNA synthesis) [2]: 0.085 µg/mL
acute toxicity (LD50 value) (mice): 35.3 mg/kg
Solubility (Solubility; [5]): soluble
Solubility (Solubility; in water, ether and n-hexane): slightly soluble

CCC1(O)CC(OC2CC(N(C)C)C(OC3CC(O)C(O)C(C)O3)C(C)O2)c2c(O)c3c(c(O)c2C1O)C(=O)c1cccc(O)c1C3=O (stereo not drawn) [β-Rhodomycinone-RD]
IC50 (L1210 leukemia cells; [4]): 0.01 µg/mL (≈ 0.0148 µM)
antitumor effect on L1210 leukemia cells (L1210 leukemia cells): have an antitumor effect on L1210 leukemia cells
IC50 [1]: 0.36 µg/mL (≈ 0.534 µM)
IC50 [2]: 0.13 µg/mL (≈ 0.193 µM)
LD50 [3]: 25.5 mg/kg
Solubility (Solubility; [5]): soluble
Solubility (Solubility; in water, ether and n-hexane): slightly soluble

CCC1(O)CC(OC2CC(N(C)C)C(OC3CC(O)C(OC4CCC(=O)C(C)O4)C(C)O3)C(C)O2)c2c(O)c3c(c(O)c2C1O)C(=O)c1cccc(O)c1C3=O (stereo not drawn) [β-Rhodomycinone-RDC, reference compound]
IC50 (L1210 leukemia cells; [4]): 0.01 µg/mL (≈ 0.0127 µM)
IC50 [1]: 0.45 µg/mL (≈ 0.573 µM)
IC50 [2]: 0.07 µg/mL (≈ 0.0891 µM)
